EP4444311B1, “GI[…] TREATMENT OF CHRONIC HEPATITIS B VIRUS INFECTIONS” (priority 2021, dated 2023)
Like-named read-outs stand apart in the source and are kept apart here.

Assays:
[1] = test system: HepG2.2.15 cells; test: Cytotoxicity assay (CCK-8 cell viability); format: cell-based, human; conditions: 3.12-100 µM; for HepG2.2.15 cytotoxicity: day 2 and 4 post-first exposure; for cell viabilities: day 6 post-first exposure, unrelated to ginsenoside doses, non-specific decline
Method: HepG2.2.15 cells (seeded at a density of 4 x 10^4 cells per well in 96-well plates) were cultured at 37 °C in humidified air with 5 % CO2. After cells reached 70-80 % confluence, initial screening of ginsenoside library compounds was performed with each compound added to cultured HepG2.2.15 cell at a final concentration of 50 µM. Cells were then further incubated at 37 °C under 5 % CO2. At day 4 post-first exposure of cells to each ginsenoside library compound, percentage cell viabilities were determined by CCK-8 (Dojindo Laboratories, Kumamoto, Japan) used according to manufacturer's instructions. Thereafter, cytotoxicity studies were performed with appropriate quantities of selected ginsenosides (Rg6, Rh4, or Rb3) added to cultured HepG2.2.15 cells at final concentrations of 100, 50, 25, 12.5, 6.25 or 3.12 µM. Cells were then incubated at 37 °C under 5 % CO2. At day 2, 4, and 6 post-first exposure of cells to the selected ginsenosides, percentage cell viabilities were determined by CCK-8 assay as above. Final cytotoxicity studies were performed with combinations of ginsenoside compounds (Rg6, Rh4 or Rb3) (at 80, 40, 20, 10, 5 or 2.5 µM) and LMV (at 0.08, 0.04, 0.02, 0.01, 0.005 or 0.0025 µM) respectively added to cultured HepG2.2.15 cells. Once more, cells were further incubated at 37 °C under 5 % CO2. At day 5 post-first exposure of cells to ginsenoside/LMV combinations, percentage cell viabilities were determined by CCK-8 assay once again.

[2] = test system: HBs protein (S-HBs, M-HBs, and L-HBs) mRNA; test: Knockdown of HBs protein mRNA expression levels in HepG2.2.15 cells (RT-qPCR relative to GAPDH mRNA); format: cell-based, hepatitis B virus; conditions: for IC50: Hepatitis B virus, read-out: Estimated IC50 values (knockdown of HBs protein mRNA expression levels); for knockdown effects on HBs protein mRNA expression levels: day 6 post-first exposure (data not shown); for knockdown HBs protein mRNA expression levels (in words): library screen, 50 µM, day 4 post-first exposure, HepG2.2.15 cells
Method: HepG2.2.15 cells (seeded at a density of 4 x 10^4 cells per well in 96-well plates) were cultured at 37 °C in humidified air with 5 % CO2. Once cells had reached confluence, initial screening of ginsenoside library compounds was performed with each compound added individually to culture media at a final concentration of 50 µM. Cells were then further incubated at 37 °C under 5 % CO2. At day 4 post-first exposure, cells were then collected to determine the percentage knockdowns of HBs protein mRNA expression levels relative to GAPDH mRNA levels (as described below).
Thereafter, more extensive studies were performed with HepG2.2.15 cells as follows. After cells were grown to confluence, as above, culture media were replaced with media containing one of the selected ginsenosides as appropriate, or else with LMV or ginsenoside/LMV combinations at the indicated concentrations. Cells were then further incubated at 37 °C under 5 % CO2. At the indicated times (at day 2, 4, or 6 post-first exposure; or at just day 5 post-first exposure), cell and culture media samples respectively were collected for subsequent detection of HBs protein mRNA expression levels or secreted HBV DNA and HBsAg levels (as described below).
RNA extraction from cells was performed using the QIAamp® Viral RNA Mini kit (Qiagen, Germany), according to manufacturer's instructions. RNA integrity was evaluated by electrophoresis on 1% agarose gels, and quantified using a ND1000 spectrophotometer (NanoDrop Technologies, Germany). Following this, extracted RNA (1 µg) was used to synthesize cDNA using a SensiFAST™ cDNA Synthesis Kit (Meridian Bioscience Inc, Cincinnati, OH, USA) according to manufacturer's instructions. RT-qPCR reactions were then performed with qPCR 2xSYBR master mix (Top-Bio, Czech Republic) on a LightCycler® real-time PCR system (Roche, Switzerland), using the indicated primers specific for amplification of HBs protein (S-HBs, M-HBs, and L-HBs) and GAPDH control mRNAs (Table 1). PCR amplification was performed on multiple RT-qPCR reaction mixtures (each 20 µl) located in individual wells of a 96-well optical-grade PCR plate, sealed with optical sealing tape (Bio-Rad Laboratories, Hercules, CA, USA). Each RT-qPCR reaction mixture comprised synthesized cDNA (2 µl) (diluted 1:1), appropriate primers (each 0.4 µl, […]), 2xSYBR green PCR master mix (10 µl) and ddH2O (7.2 µl). PCR amplification involved one cycle at 94 °C (5 min), followed by 40 cycles of denaturation at 94 °C (20 s), then annealing and extension at 57 °C for 20 s, plus 72 °C for 30 s. Finally, melting curve analyses were performed by slowly heating the PCR reaction mixtures from 65 to 95 °C, in increments of 0.5 °C every 5 s, with simultaneous measurements of the SYBR green signal intensities. Percentage knockdowns of HBs protein mRNA expression levels were determined relative to GAPDH mRNA levels using calculated 2^-ΔΔct values [Livak, K.J; Schmittgen, T.D. Analysis of relative gene expression data using real-time quantitative PCR and the 2(-Delta Delta C(T)) Method. Methods 2001, 25, 402-8]. Three biological replicates were performed for each data point where fold change (FC) ≥ 2 is considered statistically significant. Table 1. Primers for RT-qPCR detection of specific mRNAs

Row | SMILES | HepG2.2.15 cytotoxicity [1] | cell viabilities [1] | IC50 ([2]; HepG2.2.15, 48 h) | IC50 ([2]; HepG2.2.15, 96 h) | knockdown effects on HBs protein mRNA expression levels [2] | knockdown HBs protein mRNA expression levels (in words) [2]
1 | CC(C)=CCC[C@](C)(O[C@@H]1O[C@H](CO[C@@H]2OC[C@@H](O)[C@H](O)[C@H]2O)[C@@H](O)[C@H](O)[C@H]1O)[C@H]1CC[C@]2(C)[C@@H]1[C@H](O)C[C@@H]1[C@@]3(C)CC[C@H](O[C@@H]4O[C@H](CO)[C@@H](O)[C@H](O)[C@H]4O[C@@H]4O[C@H](CO)[C@@H](O)[C@H](O)[C@H]4O)C(C)(C)[C@@H]3CC[C@]12C [Rb3] | no significant HepG2.2.15 cytotoxicity | Slightly reduced cell viabilities | 4.1 µM | 3.2 µM | wear off completely | especially effective
2 | C=C(CCC=C(C)C)[C@H]1CC[C@]2(C)[C@@H]1[C@H](O)C[C@@H]1[C@@]3(C)CC[C@H](O)C(C)(C)[C@@H]3[C@@H](O[C@@H]3O[C@H](CO)[C@@H](O)[C@H](O)[C@H]3O[C@@H]3O[C@@H](C)[C@H](O)[C@@H](O)[C@H]3O)C[C@]12C [Rg6] | no significant HepG2.2.15 cytotoxicity | Slightly reduced cell viabilities | 5.1 µM | 3.2 µM | wear off completely | especially effective
